pIC50: −log10 of the molar value. Blank lines part the entries; values can stand above or below the compound they belong to. Active and inactive are the calls of the source. The rule behind the calls is not given here.
Tests used:
C2C12 [1] = assay: Effect on mitochondrial mass in mouse C2C12 cells at 25 to 50 uM incubated for 72 hrs by Mitotracker green based flow cytometric analysis; assay type: functional, cell-based; conditions: dose 25-50 µM
[2] = molecular target: T1, Tyrosine-protein phosphatase non-receptor type 1 (Homo sapiens, UniProt P18031); assay: Inhibition of polyhis-tagged recombinant human PTP1B (1 to 303 residues) extracted from Escherichia coli BL21 (DE3) pLysS using p-nitro-phenyl phosphate as substrate assessed as substrate hydrolysis by measuring p-nitrophenolate release by absorbance based analysis
T1 sequence (P18031 whole entry): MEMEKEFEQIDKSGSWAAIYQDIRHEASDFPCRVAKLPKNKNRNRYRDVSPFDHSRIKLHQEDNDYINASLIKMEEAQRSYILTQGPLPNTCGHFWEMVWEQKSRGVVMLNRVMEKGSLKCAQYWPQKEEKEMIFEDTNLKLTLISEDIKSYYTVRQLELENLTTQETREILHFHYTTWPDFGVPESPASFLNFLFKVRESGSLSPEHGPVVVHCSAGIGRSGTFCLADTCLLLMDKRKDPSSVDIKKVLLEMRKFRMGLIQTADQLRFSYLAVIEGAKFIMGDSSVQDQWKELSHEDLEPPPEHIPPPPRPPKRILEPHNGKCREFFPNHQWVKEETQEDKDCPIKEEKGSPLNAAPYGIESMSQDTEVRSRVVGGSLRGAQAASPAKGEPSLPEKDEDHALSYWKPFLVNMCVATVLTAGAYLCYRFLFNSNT

[3] = molecular target: Aldo-keto reductase family 1 member B1 (Rattus norvegicus) (UniProt P07943); assay: Inhibition of male Wistar rat lens ALR2 using D,L-glyceraldehyde as substrate assessed as NADPH consumption at 1 uM by spectrophotometric analysis relative to control
[4] = molecular target: T2, Aldo-keto reductase family 1 member A1 (Rattus norvegicus, UniProt P51635); assay: Inhibition of male Wistar rat kidney ALR1 using D-glucuronate as substrate assessed as NADPH consumption by spectrophotometric analysis
T2 sequence (P51635 whole entry): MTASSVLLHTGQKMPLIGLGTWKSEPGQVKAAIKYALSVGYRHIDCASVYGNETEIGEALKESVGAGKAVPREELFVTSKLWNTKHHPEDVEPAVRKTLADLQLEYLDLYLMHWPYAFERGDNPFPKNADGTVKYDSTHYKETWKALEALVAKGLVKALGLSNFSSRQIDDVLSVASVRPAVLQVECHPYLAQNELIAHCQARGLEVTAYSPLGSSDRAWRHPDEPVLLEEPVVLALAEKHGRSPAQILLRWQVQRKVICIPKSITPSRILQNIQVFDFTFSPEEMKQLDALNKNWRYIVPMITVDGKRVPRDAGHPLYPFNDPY

[5] = molecular target: Aldo-keto reductase family 1 member B1 (Rattus norvegicus) (UniProt P07943); assay: Inhibition of male Wistar rat lens ALR2 using D,L-glyceraldehyde as substrate assessed as NADPH consumption at 10 uM by spectrophotometric analysis relative to control
[6] = molecular target: Aldo-keto reductase family 1 member B1 (Rattus norvegicus, UniProt P07943); assay: Inhibition of male Wistar rat lens ALR2 using D,L-glyceraldehyde as substrate assessed as NADPH consumption by spectrophotometric analysis
[7] = molecular target: T3, Tyrosine-protein phosphatase non-receptor type 1 (Homo sapiens) (UniProt P18031); assay: (§1) Inhibition of polyhis-tagged recombinant human PTP1B (1 to 303 residues) extracted from Escherichia coli BL21 (DE3) pLysS using p-nitro-phenyl phosphate as substrate at 10 uM preincubated for 15 mins followed by substrate addition and measured after 15 mins by absorbance based analysis relative to control; conditions: time 30.0 min
T3 sequence (whole entry): T1 sequence (P18031 whole entry)

Rattus norvegicus [8] = organism: Rattus norvegicus; assay: Selectivity index, ratio of IC50 for male Wistar rat kidney ALR1 using D-glucuronate as substrate to IC50 for male Wistar rat lens ALR2 using D,L-glyceraldehyde as substrate
[9] = molecular target: T3, Tyrosine-protein phosphatase non-receptor type 1 (Homo sapiens); assay: as §1, with “50” for “10”; conditions: time 30.0 min
C2C12 [10] = assay: Reduction in oxygen-dependent ATP production in mouse C2C12 cells assessed as decrease in coupling efficiency at 25 uM incubated for 24 hrs by Seahorse XF cell mito stress analysis; assay type: functional, cell-based
C2C12 [11] = assay: Induction of Akt phosphorylation in mouse C2C12 cells at 25 uM incubated for 30 mins by Western blot analysis; assay type: cell-based
C2C12 [12] = assay: Effect on mitochondrial mass in mouse C2C12 cells at 25 uM incubated for 72 hrs by Mitotracker green based flow cytometric analysis; assay type: functional, cell-based
C2C12 [13] = assay: Induction of mitochondrial uncoupling activity in mouse C2C12 cells assessed as increase in proton leak at 25 uM incubated for 30 mins by Seahorse XF cell mito stress analysis; assay type: functional, cell-based
C2C12 [14] = assay: Reduction in basal respiration rate in mouse C2C12 cells assessed as decrease in coupling efficiency at 25 uM incubated for 24 hrs by Seahorse XF cell mito stress analysis; assay type: functional, cell-based
Homo sapiens = organism: Homo sapiens; assay: Selectivity index, ratio of IC50 for polyHis-tagged recombinant human TCPTP (1 to 415 residues) extracted from Escherichia coli BL21 (DE3) pLysS using p-nitro-phenyl phosphate as substrate to IC50 for polyhis-tagged recombinant human PTP1B (1 to 303 residues) extracted from Escherichia coli BL21 (DE3) pLysS using p-nitro-phenyl phosphate as substrate
C2C12 [15] = assay: Reduction in proton leak in mouse C2C12 cells assessed as decrease in coupling efficiency at 25 uM incubated for 24 hrs by Seahorse XF cell mito stress analysis; assay type: functional, cell-based
C2C12 [16] = assay: Cytotoxicity against mouse C2C12 cells assessed as reduction in cell viability at 1 uM measured after 48 hrs by MTT assay; assay type: toxicity, cell-based; conditions: c2c12, 48 h
C2C12 [17] = assay: Effect on sparse capacity in mouse C2C12 cells assessed as decrease in coupling efficiency at 25 uM incubated for 24 hrs by Seahorse XF cell mito stress analysis; assay type: functional, cell-based
C2C12 [18] = assay: Reduction of mitochondrial mass in mouse C2C12 cells at 25 uM incubated for 72 hrs by Mitotracker green based flow cytometric analysis; assay type: functional, cell-based
C2C12 [19] = assay: Reduction in maximal respiration rate in mouse C2C12 cells assessed as decrease in coupling efficiency at 25 uM incubated for 24 hrs by Seahorse XF cell mito stress analysis; assay type: functional, cell-based
Mitochondrial membrane = assay: Induction of mitochondrial membrane potential loss in mouse C2C12 cells at 25 uM incubated for 0.5 to 50 hrs by TMRE probe based flow cytometric analysis; conditions: time 0.5-50 hrs
C2C12 [20] = assay: Enhancement of […] glucose uptake in mouse C2C12 cells assessed as increase in 2-NDBG uptake at 25 to 50 uM preincubated for 30 mins followed by insulin addition and measure after 30 mins by flow cytometric analysis; assay type: functional, cell-based; conditions: dose 25-50 µM, time 60.0 min
C2C12 [21] = assay: Induction of mitochondrial uncoupling activity in mouse C2C12 cells assessed as decrease in oxygen-dependent ATP production at 25 uM incubated for 30 mins by Seahorse XF cell mito stress analysis; assay type: functional, cell-based
C2C12 [22] = assay: Induction of mitochondrial uncoupling activity in mouse C2C12 cells assessed as decrease in coupling efficiency at 25 uM incubated for 30 mins by Seahorse XF cell mito stress analysis; assay type: functional, cell-based
C2C12 [23] = assay: Induction of glucose uptake in mouse C2C12 cells assessed as decrease in glucose concentration in cell culture medium at 25 to 50 uM incubated for 24 hrs by BGSTAR glucometric analysis; assay type: functional, cell-based; conditions: dose 25-50 µM
[24] = molecular target: T4, Tyrosine-protein phosphatase non-receptor type 2 (Homo sapiens, UniProt P17706); assay: Inhibition of polyHis-tagged recombinant human TCPTP (1 to 415 residues) extracted from Escherichia coli BL21 (DE3) pLysS using p-nitro-phenyl phosphate as substrate assessed as substrate hydrolysis by measuring p-nitrophenolate release by absorbance based analysis
T4 sequence (P17706 whole entry): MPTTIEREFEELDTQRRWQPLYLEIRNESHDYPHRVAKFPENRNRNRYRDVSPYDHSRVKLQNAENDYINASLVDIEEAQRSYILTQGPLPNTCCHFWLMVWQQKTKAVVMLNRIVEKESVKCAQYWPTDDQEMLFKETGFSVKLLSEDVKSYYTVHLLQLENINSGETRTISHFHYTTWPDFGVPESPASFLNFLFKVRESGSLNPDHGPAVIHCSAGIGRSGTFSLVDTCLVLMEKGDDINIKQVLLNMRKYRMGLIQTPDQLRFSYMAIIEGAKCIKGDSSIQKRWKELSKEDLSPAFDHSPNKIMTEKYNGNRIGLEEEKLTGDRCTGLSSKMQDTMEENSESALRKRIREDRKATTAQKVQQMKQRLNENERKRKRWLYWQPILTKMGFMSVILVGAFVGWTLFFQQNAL

C2C12 [25] = assay: Effect on maximal respiration rate in mouse C2C12 cells assessed as decrease in coupling efficiency at 25 uM incubated for 30 mins by Seahorse XF cell mito stress analysis; assay type: functional, cell-based
C2C12 [26] = assay: Effect on basal respiration rate in mouse C2C12 cells assessed as decrease in coupling efficiency at 25 uM incubated for 30 mins by Seahorse XF cell mito stress analysis; assay type: functional, cell-based
C2C12 [27] = assay: Induction of mitochondrial uncoupling activity in mouse C2C12 cells assessed as decrease in sparse capacity at 25 uM incubated for 30 mins by Seahorse XF cell mito stress analysis; assay type: functional, cell-based
C2C12 [28] = assay: Induction of Akt phosphorylation in mouse C2C12 cells at 25 uM incubated for 30 mins in presence of insulin by Western blot analysis; assay type: cell-based
[29] = molecular target: T3, Tyrosine-protein phosphatase non-receptor type 1 (Homo sapiens); assay: Irreversible inhibition of polyhis-tagged recombinant human PTP1B (1 to 303 residues) extracted from Escherichia coli BL21 (DE3) pLysS at 200 uM incubated for 1 hrs and measured after dilution
C2C12 [30] = assay: Effect on couple efficiency in mouse C2C12 cells assessed as decrease in coupling efficiency at 25 uM incubated for 24 hrs by Seahorse XF cell mito stress analysis; assay type: functional, cell-based
C2C12 [31] = assay: Induction of glucose uptake in mouse C2C12 cells assessed as increase in 2-NDBG uptake at 25 to 50 uM incubated for 30 mins by flow cytometric analysis; assay type: functional, cell-based; conditions: dose 25-50 µM
Rattus norvegicus [32] = organism: Rattus norvegicus; assay: Selectivity index, ratio of IC50 for rat kidney ALR1 to IC50 for rat lens ALR2
[33] = molecular target: T2, Aldo-keto reductase family 1 member A1; assay: Inhibition of rat kidney ALR1; assay type: tissue-based
[34] = Selectivity index, ratio of IC50 for TCPTP (unknown origin) extracted from Escherichia coli BL21 TB1 using p-nitro-phenyl phosphate as substrate to IC50 for human PTP1B extracted from Escherichia coli BL21 TB1 using p-nitro-phenyl phosphate as substrate

SMILES: CN(C)C(=N)NC(=N)N
- Activity (C2C12 [1]): inactive

SMILES: Cc1ccc(CN2C(=O)C(C(C#N)C(=O)O)c3cc(F)ccc32)cc1 (stereo not given)
- Ratio IC50 (Rattus norvegicus [32]): 16

SMILES: CC(/C=C1\SC(=S)N(CC(=O)O)C1=O)=C\c1ccccc1
- pIC50 [4]: 5.63
- pIC50 [33]: 5.67

SMILES: O=c1c(O)c(-c2ccc(O)cc2O)oc2cc(O)cc(O)c12
- inhibition [7]: 34.5%
- Ratio IC50 [34]: 1.3
- inhibition [9]: 95.2%

Now from value to compound, other results behind:

- pIC50 [2]: < 4.30
- inhibition [3]: > 70%
- pIC50 [4]: < 4.82
- inhibition [5]: > 92%
- pIC50 [6]: 6.73
- inhibition [7]: 0%
- Ratio IC50 (Rattus norvegicus [8]): > 80
- inhibition [9]: 4.4%
SMILES: O=C(O)CN1C(=O)S/C(=C\c2cn(Cc3ccc(Br)cc3F)c3ccccc23)C1=O

- pIC50 [2]: 4.67
- inhibition [3]: > 70%
- pIC50 [4]: < 4.82
- inhibition [5]: > 92%
- Ratio IC50 (Homo sapiens): 1.8
- pIC50 [6]: 6.54
- inhibition [7]: 28.1%
- pIC50 [24]: 4.42
- Ratio IC50 (Rattus norvegicus [8]): > 52
- inhibition [29]: Active
- inhibition [9]: 62.8%
SMILES: O=C(O)CN1C(=O)S/C(=C\c2cn(Cc3ccc(Cl)cc3Cl)c3ccccc23)C1=O
- Activity (C2C12 [10]): Active
- Activity (C2C12 [11]): Not active; Compound Acted Neither As An Insulin Mimetic Nor A Sensitizing Agent
- Activity (C2C12 [12]): inactive
- Activity (C2C12 [13]): Active
- Activity (C2C12 [14]): Active
- Activity (C2C12 [15]): Active
- Activity (C2C12 [16]): Toxic
- Activity (C2C12 [17]): inactive
- Activity (C2C12 [18]): Active
- Activity (C2C12 [19]): Active
- Activity (Mitochondrial membrane): Active; Compound Targets Mitochondria As An Uncoupling Agent
- Activity (C2C12 [20]): inactive
- Activity (C2C12 [21]): Active
- Activity (C2C12 [22]): Active
- Activity (C2C12 [23]): Active
- Activity (C2C12 [25]): inactive
- Activity (C2C12 [26]): inactive
- Activity (C2C12 [27]): Active
- Activity (C2C12 [28]): Not active; Compound Acted Neither As An Insulin Mimetic Nor A Sensitizing Agent
- Activity (C2C12 [30]): inactive
- Activity (C2C12 [31]): Active

- pIC50 [2]: 4.37
- inhibition [3]: > 70%
- pIC50 [4]: 5.12
- inhibition [5]: > 92%
- Ratio IC50 (Homo sapiens): 1.1
- pIC50 [6]: 7.59
- inhibition [7]: 18.3%
- pIC50 [24]: 4.33
- Ratio IC50 (Rattus norvegicus [8]): 290
- inhibition [29]: Active
- inhibition [9]: 49.6%
SMILES: O=C(O)CN1C(=O)S/C(=C\c2cn(Cc3ccccc3)c3ccccc23)C1=O

- inhibition [3]: > 70%
- pIC50 [4]: 4.85
- inhibition [5]: > 92%
- pIC50 [6]: 7.74
- inhibition [7]: 0%
- Ratio IC50 (Rattus norvegicus [8]): 787
- inhibition [9]: 90.8%
SMILES: O=C(O)CN1C(=O)S/C(=C\c2cn(Cc3ccc(F)cc3)c3ccccc23)C1=O

Reference: ChEMBL document CHEMBL6096642 (Eur J Med Chem, 2025)
